Values after ≈ are worked out from the molar mass of the structure shown. Residues, ends and D or L forms follow the SMILES beside them.
Legend:
in vitro = conditions: 25% (v/v) human serum, 24 h, 37 °C, 50 µM peptide, RP-HPLC peak area vs time zero
Description: The serum stability assay was carried out as previously described with some modifications. Briefly, tachyplesin variants were incubated in 25% (v/v) human serum diluted in phosphate-buffered saline (PBS) at a final concentration of 50 µM at 37 °C. Triplicates were collected at time 0 h and 24 h and the serum proteins were precipitated with acetonitrile (1:3 ratio) supplemented with 3% TFA. Samples were kept on ice for 10 min before centrifugation at 17,000× g for 10 min at 4 °C. The peptide containing supernatant of each sample was harvested and quantified using RP-HPLC (10 to 45% solvent B, 1%/min gradient). The percentage of peptide stability in human serum was calculated by comparing the area of the peptide peak obtained at 24 h to that at time 0 h. A linear peptide containing 18 amino acid residues ([…]) was included as a control susceptible to proteolytic degradation.

[1] = Hemolytic activity against human red blood cells; type: cell-based; conditions: at 64 µM peptide, human RBCs; read-out: RBCs lysed (hemolysis)
Description: (§1) A small amount of blood was collected from three healthy human donors. The blood was immediately diluted in PBS and centrifuged 4–5 times for 1 min at 4000 rpm to wash and separate the human red blood cells (RBCs). RBCs suspension (0.25% (v/v) in PBS) was incubated with peptides with two-fold serial dilutions of the peptide (highest concentration tested was 128 µM, and the lowest was 0.25 µM) in a 96-well plate. Melittin, a membrane disruptive peptide, was used as control. The plates were incubated for 1 h at 37 °C. After incubation, the plates were centrifuged for 5 min at 1000 rpm to pellet any non-lysed RBCs. A total of 100 µL of the supernatant were transferred to a new 96-well plate. The hemoglobin released into the supernatant from lysed cells was measured by absorbance at 415 nm using the Tecan infinite M1000Pro multiplate reader (Männedorf, Switzerland).

[2] = test system: human red blood cells (RBCs); experiment: Hemolytic activity against human red blood cells; type: cell-based; conditions: human RBCs 0.25% (v/v), 1 h, 37 °C; mean ± SEM
Description: as §1

E. coli ATCC 25922 = experiment: MIC against planktonic bacteria (resazurin); type: cell-based, Escherichia coli; conditions: Mueller Hinton Broth
Description: (§2) S. aureus ATCC 25923, S. aureus ATCC 6538, E. coli ATCC 25922, and E. coli DC2 CGSC 7139 were grown in Mueller Hinton Broth (Sigma Aldrich, St. Luis, USA). Bacterial cultures in the exponential growth phase were diluted to an OD600nm of 0.001 and seeded into 96-well plates. Peptides at different concentrations, starting at 64 µM and with two-fold serial dilutions (i.e., 64, 32, 16, 8, 4, 2, 1, 0.5, 0.25, 0.125 and 0.0625 µM), were incubated with cells; 0.05% (v/v) resazurin was added to the cultures the next day and the conversion to resorufin was measured after 1 h of incubation at 37 °C using a 565 nm excitation and 584 nm emission wavelength, as above.

E. coli DC2 CGSC 7139 = experiment: MIC against planktonic bacteria (resazurin); type: cell-based, Escherichia coli; conditions: Mueller Hinton Broth
Description: as §2

S. aureus ATCC 25923 = experiment: MIC against planktonic bacteria (resazurin); type: cell-based, Staphylococcus aureus; conditions: Mueller Hinton Broth
Description: as §2

S. aureus ATCC 6538 = experiment: MIC against planktonic bacteria (resazurin); type: cell-based, Staphylococcus aureus; conditions: Mueller Hinton Broth
Description: as §2

[3] = Activity against preformed biofilm (resazurin metabolic activity); type: cell-based, Staphylococcus aureus; conditions: 24 h preformed biofilm, 4 h peptide treatment; read-out: CC50 (reduction of 50% of the metabolically active cell population)
Description: S. aureus ATCC 6538 (1 × 10^6 cfu/mL) was cultured in Tryptic Soy Broth, containing 0.25% (w/v) glucose and incubated in 96-well microtiter flat-bottomed polystyrene plates for 24 h at 37 °C. Preformed biofilms were then washed with Mueller Hinton Broth to remove non-adherent cells. Two-fold serial dilutions of each peptide (highest concentration tested was 32 µM and lowest was 0.25 µM) were added to the biofilms for 4 h. Untreated 24 h preformed biofilms were used as a control. The metabolic activity of biofilm-embedded cells was determined using a resazurin reduction fluorometric assay as previously described.

[4] = Cytotoxicity assay (resazurin); type: cell-based, Human; conditions: ± SEM, n ≥ 3
Description: Cells were grown in cell culture flasks and incubated in a humidified atmosphere (5% CO2, 37 °C). The cancer cell lines HeLa and the control cell line HaCaT were grown in a DMEM medium supplemented with 1% (v/v) penicillin/streptomycin and 10% (v/v) fetal bovine serum (FBS). The cancer cell lines MM96L, HT144 and WM164 were grown in a RPMI medium supplemented with 1% (v/v) penicillin/[…], 10% (v/v) FBS, 20 mM L-glutamine, and 10 mM sodium pyruvate. Cell cultures were maintained by dilution upon reaching confluence, each 48–72 h. More information about the cell lines is available in Tables S2 and S3.
Cells were seeded into 96-well flat-bottom plates at 5 × 10^3 cells/well and incubated overnight. The medium was removed and replaced with 90 µL serum-free medium, 10 µL of 10x concentrated peptide solutions in PBS were added. PBS was added as blank and 0.1% (v/v) Triton X-100 was used to establish 100% of cell death. After 2 h incubation at 37 °C, 10 µL of filtered 0.05% (w/v) resazurin solution was added to each well [70]. Resazurin is converted to the pink and fluorescent compound resorufin by viable cells. After incubation overnight, the fluorescence intensity (λex = 565 nm and λem = 584 nm) was measured with the Tecan infinite M1000Pro multiplate reader (Männedorf, Switzerland).

[5] = HT144, 2 h peptide in serum-free medium
[6] = HaCaT non-cancerous control, 2 h peptide in serum-free medium
[7] = HeLa, 2 h peptide in serum-free medium
[8] = MM96L, 2 h peptide in serum-free medium
[9] = WM164, 2 h peptide in serum-free medium

SMILES	peptide remaining in human serum (in vitro)	hemolysis [1] [%]	HC50 (concentration required to induce 50% lysis in RBCs) [2] [µM]	MIC (E. coli ATCC 25922) [µM]	MIC (E. coli DC2 CGSC 7139) [µM]	MIC (S. aureus ATCC 25923) [µM]	MIC (S. aureus ATCC 6538) [µM]	Concentration reducing biofilm metabolic activity by 50% [3] [µM]	CC50 [4, 5] [nM]	CC50 [4, 6] [nM]	CC50 [4, 7] [nM]	CC50 [4, 8] [nM]	CC50 [4, 9] [nM]
CC[C@H](C)[C@H](NC(=O)[C@H](CC(C)C)NC(=O)[C@H](CCC(N)=O)NC(=O)CNC(=O)[C@H](CO)NC(=O)CNC(=O)CNC(=O)CNC(=O)CNC(=O)[C@@H](N)CCCCN)C(=O)N[C@@H](CC(=O)O)C(=O)N[C@@H](CO)C(=O)N[C@@H](CCSC)C(=O)N[C@@H](C)C(=O)N[C@@H](CC(N)=O)C(=O)N[C@@H](CO)C(=O)N[C@@H](Cc1ccccc1)C(=O)N[C@H](C(=O)O)C(C)C [KGGGGSGQLIDSMANSFV, reference compound] (H-KGGGGSGQLIDSMANSFV-OH)	fully degraded												
CC[C@H](C)[C@@H]1NC(=O)CNC(=O)[C@H](CCCNC(=N)N)NC(=O)[C@H](Cc2ccc(O)cc2)NC(=O)[C@@H]2CSSC[C@H](NC1=O)C(=O)N[C@@H](Cc1ccc(O)cc1)C(=O)N[C@@H](CCCNC(=N)N)C(=O)N[C@@H](CCCCN)C(=O)N[C@H](C(=O)N[C@@H](CCCNC(=N)N)C(N)=O)CSSC[C@H](NC(=O)[C@H](Cc1c[nH]c3ccccc13)NC(=O)[C@@H](N)CCCNC(=N)N)C(=O)N[C@@H](Cc1ccccc1)C(=O)N[C@@H](CCCNC(=N)N)C(=O)N[C@@H](C(C)C)C(=O)N2 [TII, Tachyplesin II] (HELM PEPTIDE1{R.W.C.F.R.V.C.Y.R.G.I.C.Y.R.K.C.R.[am]}$PEPTIDE1,PEPTIDE1,3:R3-16:R3|PEPTIDE1,PEPTIDE1,7:R3-12:R3$$$V2.0)		56	55.4 ± 6.6	0.125 to 0.5	0.5 to 1	1 to 4	4 to 8	23.1 ± 2.9	2000 ± 100	3700 ± 200	18000 ± 3900	1600 ± 100	1600 ± 100
CC[C@H](C)[C@@H]1NC(=O)CNC(=O)[C@H](CCCNC(=N)N)NC(=O)[C@H](Cc2ccc(O)cc2)NC(=O)[C@@H]2CSSC[C@H](NC1=O)C(=O)N[C@@H](Cc1ccc(O)cc1)C(=O)N[C@@H](CCCNC(=N)N)C(=O)N[C@@H](CCCNC(=N)N)C(=O)N[C@H]1CSSC[C@H](NC(=O)[C@H](Cc3c[nH]c4ccccc34)NC(=O)[C@H](CCCCN)NC(=O)CNC(=O)[C@H](CCCNC(=N)N)NC1=O)C(=O)N[C@@H](Cc1ccccc1)C(=O)N[C@@H](CCCNC(=N)N)C(=O)N[C@@H](C(C)C)C(=O)N2 [cTI, Cyclic Tachyplesin I] (HELM PEPTIDE1{C.F.R.V.C.Y.R.G.I.C.Y.R.R.C.R.G.K.W}$PEPTIDE1,PEPTIDE1,1:R3-14:R3|PEPTIDE1,PEPTIDE1,5:R3-10:R3|PEPTIDE1,PEPTIDE1,1:R1-18:R2$$$V2.0)	did not degrade		106.9 ± 21.0	1 (≈ 2.3 µg/mL)	4 (≈ 9.22 µg/mL)	2 to 8	8 (≈ 18.4 µg/mL)	17.8 ± 3.6	1400 ± 100	7900 ± 500	6700 ± 600	1300 ± 100	2700 ± 100
CC[C@H](C)[C@@H]1NC(=O)CNC(=O)[C@H](CCCNC(=N)N)NC(=O)[C@H](Cc2ccc(O)cc2)NC(=O)[C@@H]2CSSC[C@H](NC1=O)C(=O)N[C@@H](Cc1ccc(O)cc1)C(=O)N[C@@H](CCCNC(=N)N)C(=O)N[C@@H](CCCCN)C(=O)N[C@H]1CSSC[C@H](NC(=O)[C@H](Cc3c[nH]c4ccccc34)NC(=O)[C@H](CCCNC(=N)N)NC(=O)CNC(=O)[C@H](CCCNC(=N)N)NC1=O)C(=O)N[C@@H](Cc1ccccc1)C(=O)N[C@@H](CCCNC(=N)N)C(=O)N[C@@H](C(C)C)C(=O)N2 [cTII, Cyclic Tachyplesin II] (HELM PEPTIDE1{C.F.R.V.C.Y.R.G.I.C.Y.R.K.C.R.G.R.W}$PEPTIDE1,PEPTIDE1,1:R3-14:R3|PEPTIDE1,PEPTIDE1,5:R3-10:R3|PEPTIDE1,PEPTIDE1,1:R1-18:R2$$$V2.0)			64.1 ± 9.4	1 to 2	4 to 8	2 to 8	8 (≈ 18.4 µg/mL)	19.4 ± 1.5	800 ± 40	2400 ± 300	7200 ± 400	1100 ± 100	2400 ± 300
CC[C@H](C)[C@@H]1NC(=O)CNC(=O)[C@H](CCCNC(=N)N)NC(=O)[C@H](Cc2ccc(O)cc2)NC(=O)[C@@H]2CSSC[C@H](NC1=O)C(=O)N[C@@H](Cc1ccc(O)cc1)C(=O)N[C@@H](CCCNC(=N)N)C(=O)N[C@@H](CCCCN)C(=O)N[C@H]1CSSC[C@H](NC(=O)[C@H](Cc3c[nH]c4ccccc34)NC(=O)[C@H](CCCCN)NC(=O)CNC(=O)[C@H](CCCNC(=N)N)NC1=O)C(=O)N[C@@H](Cc1ccccc1)C(=O)N[C@@H](CCCNC(=N)N)C(=O)N[C@@H](C(C)C)C(=O)N2 [cTIII, Cyclic Tachyplesin III] (HELM PEPTIDE1{C.F.R.V.C.Y.R.G.I.C.Y.R.K.C.R.G.K.W}$PEPTIDE1,PEPTIDE1,1:R3-14:R3|PEPTIDE1,PEPTIDE1,5:R3-10:R3|PEPTIDE1,PEPTIDE1,1:R1-18:R2$$$V2.0)			>128	1 to 2	4 to 8	2 to 8	8 (≈ 18.2 µg/mL)	18 ± 1.4	900 ± 30	7500 ± 300	9300 ± 400	1700 ± 100	1300 ± 100
